Test results: patent publication US20250154686A1, “COMPOUND LIBRARY” (CHUGAI SEIYAKU KABUSHIKI KAISHA, priority 2021, published 2025)

Molecular target: T1, Bcl-2 protein (Recombinant Human Bcl-2 Protein) (Homo sapiens, UniProt P10415)
T1 construct: purchased Novus Biologicals NBP2-34889
Test: AS-MS evaluation of binding of the Example 4 mixture library (1200 compounds/well) to Bcl-2, ASMS ratio (%)
Details: mixture library, value belongs to the MS peak assigned to the compound; for ASMS ratio (%) n = 1: replicate n = 1; for ASMS ratio (%) n = 2: replicate n = 2
Method in brief: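 Affinity-selection MS: 1200 cpds/well, 20 nM each; hBcl-2 20 μM; 25 mM Tris pH 7.4/150 mM NaCl/0.025% Tween-20/1 mM DTT; 1 h, 23 °C, dark; P-2 size-exclusion spin, MeCN:MeOH 1:1 extraction; RP LC/MS; ratio vs no-protein STD and SEC blank.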

T1 sequence (P10415 whole entry): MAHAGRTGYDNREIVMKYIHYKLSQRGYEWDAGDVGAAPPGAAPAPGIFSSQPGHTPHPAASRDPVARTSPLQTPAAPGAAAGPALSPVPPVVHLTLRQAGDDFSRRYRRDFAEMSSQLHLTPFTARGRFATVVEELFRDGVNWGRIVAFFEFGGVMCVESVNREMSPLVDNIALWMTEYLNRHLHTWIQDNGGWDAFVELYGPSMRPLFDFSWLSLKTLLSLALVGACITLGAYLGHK

ASMS ratio (%) n = 1 [%]	ASMS ratio (%) n = 2 [%]	Compound
0.0	0.0	CCOc1cncc(-c2ccc(C(=O)N3CCN(c4ccc(C(=O)NS(=O)(=O)C(C)(C)C)cc4)CC3)cc2F)c1 [Compound B2L028-01, N-tert-Butylsulfonyl-4-[4-[4-(5-ethoxypyridin-3-yl)-3-fluorobenzoyl]piperazin-1-yl]benzamide]
0.0	–	CCOc1cccc(C#Cc2ccccc2C(=O)N2CCN(c3ccc(C(=O)NS(=O)(=O)C(C)(C)C)cc3)CC2)c1 [Compound B2L029-01, N-tert-Butylsulfonyl-4-[4-[2-[2-(3-ethoxyphenyl)ethynyl]benzoyl]piperazin-1-yl]benzamide]
0.0	0.0	CCOc1cncc(C#Cc2ccccc2C(=O)N2CCN(c3ccc(C(=O)NS(=O)(=O)C(C)(C)C)cc3)CC2)c1 [Compound B2L030-01, N-tert-Butylsulfonyl-4-[4-[2-[2-(5-ethoxypyridin-3-yl)ethynyl]benzoyl]piperazin-1-yl]benzamide]
0.0	0.0	CCOc1cccc(C#Cc2cncc(C(=O)N3CCN(c4ccc(C(=O)NS(=O)(=O)C(C)(C)C)cc4)CC3)c2)c1 [Compound B2L031-01, N-tert-Butylsulfonyl-4-[4-[5-[2-(3-ethoxyphenyl)ethynyl]pyridine-3-carbonyl]piperazin-1-yl]benzamide]
0.0	−1.0	CCOc1cncc(C#Cc2cncc(C(=O)N3CCN(c4ccc(C(=O)NS(=O)(=O)C(C)(C)C)cc4)CC3)c2)c1 [Compound B2L032-01, N-tert-Butylsulfonyl-4-[4-[5-[2-(5-ethoxypyridin-3-yl)ethynyl]pyridine-3-carbonyl]piperazin-1-yl]benzamide]
0.0	0.0	CCOc1cccc(-c2ccccc2CCC(=O)N2CCN(c3ccc(C(=O)NS(=O)(=O)C(C)(C)C)cc3)CC2)c1 [Compound B2L033-01, N-tert-Butylsulfonyl-4-[4-[3-[2-(3-ethoxyphenyl)phenyl]propanoyl]piperazin-1-yl]benzamide]
1.6	3.5	CCOc1cncc(-c2ccccc2CCC(=O)N2CCN(c3ccc(C(=O)NS(=O)(=O)C(C)(C)C)cc3)CC2)c1 [Compound B2L034-01, N-tert-Butylsulfonyl-4-[4-[3-[2-(5-ethoxypyridin-3-yl)phenyl]propanoyl]piperazin-1-yl]benzamide]
0.0	–	CCOc1cccc(-c2ccc(C(=O)N3CCN(c4ccc(C(=O)NS(=O)(=O)C(C)(C)C)cc4)CC3)c3ccccc23)c1 [Compound B2L035-01, N-tert-Butylsulfonyl-4-[4-[4-(3-ethoxyphenyl)naphthalene-1-carbonyl]piperazin-1-yl]benzamide]
0.0	0.0	CCOc1cncc(-c2ccc(C(=O)N3CCN(c4ccc(C(=O)NS(=O)(=O)C(C)(C)C)cc4)CC3)c3ccccc23)c1 [Compound B2L036-01, N-tert-Butylsulfonyl-4-[4-[4-(5-ethoxypyridin-3-yl)naphthalene-1-carbonyl]piperazin-1-yl]benzamide]
0.0	0.0	CCOc1cccc(-c2cc(C(=O)N3CCN(c4ccc(C(=O)NS(=O)(=O)C(C)(C)C)cc4)CC3)cc(C(C)(C)C)c2)c1 [Compound B2L037-01, 4-[4-[3-tert-Butyl-5-(3-ethoxyphenyl)benzoyl]piperazin-1-yl]-N-tert-butylsulfonylbenzamide]
0.0	0.0	CCOc1cncc(-c2cc(C(=O)N3CCN(c4ccc(C(=O)NS(=O)(=O)C(C)(C)C)cc4)CC3)cc(C(C)(C)C)c2)c1 [Compound B2L038-01, 4-[4-[3-tert-Butyl-5-(5-ethoxypyridin-3-yl)benzoyl]piperazin-1-yl]-N-tert-butylsulfonylbenzamide]
0.0	0.0	CCOc1cccc(-c2cc(C(=O)N3CCN(c4ccc(C(=O)NS(=O)(=O)C(C)(C)C)cc4)CC3)cc(C(F)(F)F)c2)c1 [Compound B2L039-01, N-tert-Butylsulfonyl-4-[4-[3-(3-ethoxyphenyl)-5-(trifluoromethyl)benzoyl]piperazin-1-yl]benzamide]
−0.2	1.0	CCOc1cncc(-c2cc(C(=O)N3CCN(c4ccc(C(=O)NS(=O)(=O)C(C)(C)C)cc4)CC3)cc(C(F)(F)F)c2)c1 [Compound B2L040-01, N-tert-Butylsulfonyl-4-[4-[3-(5-ethoxypyridin-3-yl)-5-(trifluoromethyl)benzoyl]piperazin-1-yl]benzamide]
0.0	–	CCOc1cccc(C#Cc2cc(C(=O)N3CCN(c4ccc(C(=O)NS(=O)(=O)C(C)(C)C)cc4)CC3)cc(C(F)(F)F)c2)c1 [Compound B2L041-01, N-tert-Butylsulfonyl-4-[4-[3-[2-(3-ethoxyphenyl)ethynyl]-5-(trifluoromethyl)benzoyl]piperazin-1-yl]benzamide]
0.0	0.0	CCOc1cncc(C#Cc2cc(C(=O)N3CCN(c4ccc(C(=O)NS(=O)(=O)C(C)(C)C)cc4)CC3)cc(C(F)(F)F)c2)c1 [Compound B2L042-01, N-tert-Butylsulfonyl-4-[4-[3-[2-(5-ethoxypyridin-3-yl)ethynyl]-5-(trifluoromethyl)benzoyl]piperazin-1-yl]benzamide]
0.0	0.0	CCOc1cccc(-c2cnn(-c3cc(C(=O)N4CCN(c5ccc(C(=O)NS(=O)(=O)C(C)(C)C)cc5)CC4)cc(C(F)(F)F)c3)c2)c1 [Compound B2L043-01, N-tert-Butylsulfonyl-4-[4-[3-[4-(3-ethoxyphenyl)pyrazol-1-yl]-5-(trifluoromethyl)benzoyl]piperazin-1-yl]benzamide]
0.0	0.0	CCOc1cncc(-c2cnn(-c3cc(C(=O)N4CCN(c5ccc(C(=O)NS(=O)(=O)C(C)(C)C)cc5)CC4)cc(C(F)(F)F)c3)c2)c1 [Compound B2L044-01, N-tert-Butylsulfonyl-4-[4-[3-[4-(5-ethoxypyridin-3-yl)pyrazol-1-yl]-5-(trifluoromethyl)benzoyl]piperazin-1-yl]benzamide]
0.0	0.0	CCOc1cccc(-c2ccccc2CN2CCN(c3ccc(C(=O)NS(=O)(=O)C(C)(C)C)cc3)CC2)c1 [Compound B2L045-01, N-tert-Butylsulfonyl-4-[4-[[2-(3-ethoxyphenyl)phenyl]methyl]piperazin-1-yl]benzamide]
0.0	0.0	CCOc1cncc(-c2ccccc2CN2CCN(c3ccc(C(=O)NS(=O)(=O)C(C)(C)C)cc3)CC2)c1 [Compound B2L046-01]
0.0	0.0	CCOc1cccc(-c2ccc(CN3CCN(c4ccc(C(=O)NS(=O)(=O)C(C)(C)C)cc4)CC3)cc2C)c1 [Compound B2L047-01, N-tert-Butylsulfonyl-4-[4-[[4-(3-ethoxyphenyl)-3-methylphenyl]methyl]piperazin-1-yl]benzamide]
3.9	−5.0	CCOc1cncc(-c2ccc(CN3CCN(c4ccc(C(=O)NS(=O)(=O)C(C)(C)C)cc4)CC3)cc2C)c1 [Compound B2L048-01, N-tert-Butylsulfonyl-4-[4-[[4-(5-ethoxypyridin-3-yl)-3-methylphenyl]methyl]piperazin-1-yl]benzamide]
–	0.0	CCOc1cccc(-c2ccc(CN3CCN(c4ccc(C(=O)NS(=O)(=O)C(C)(C)C)cc4)CC3)c(CC)c2)c1 [Compound B2L049-01, N-tert-Butylsulfonyl-4-[4-[[4-(3-ethoxyphenyl)-2-ethylphenyl]methyl]piperazin-1-yl]benzamide]
0.0	0.0	CCOc1cncc(-c2ccc(CN3CCN(c4ccc(C(=O)NS(=O)(=O)C(C)(C)C)cc4)CC3)c(CC)c2)c1 [Compound B2L050-01, N-tert-Butylsulfonyl-4-[4-[[4-(5-ethoxypyridin-3-yl)-2-ethylphenyl]methyl]piperazin-1-yl]benzamide]
0.0	0.0	CCOc1cccc(-c2ccc(CN3CCN(c4ccc(C(=O)NS(=O)(=O)C(C)(C)C)cc4)CC3)cc2F)c1 [Compound B2L051-01, N-tert-Butylsulfonyl-4-[4-[[4-(3-ethoxyphenyl)-3-fluorophenyl]methyl]piperazin-1-yl]benzamide]
2.7	1.0	CCOc1cncc(-c2ccc(CN3CCN(c4ccc(C(=O)NS(=O)(=O)C(C)(C)C)cc4)CC3)cc2F)c1 [Compound B2L052-01, N-tert-Butylsulfonyl-4-[4-[[4-(5-ethoxypyridin-3-yl)-3-fluorophenyl]methyl]piperazin-1-yl]benzamide]
0.0	0.0	CCOc1cccc(-c2ccc(CN3CCN(c4ccc(C(=O)NS(=O)(=O)C(C)(C)C)cc4)CC3)c(OC)c2)c1 [Compound B2L053-01]
0.0	0.0	CCOc1cncc(-c2ccc(CN3CCN(c4ccc(C(=O)NS(=O)(=O)C(C)(C)C)cc4)CC3)c(OC)c2)c1 [Compound B2L054-01]
0.0	0.0	CCOc1cccc(-c2cc(CN3CCN(c4ccc(C(=O)NS(=O)(=O)C(C)(C)C)cc4)CC3)cc(OCC)c2)c1 [Compound B2L055-01, N-tert-Butylsulfonyl-4-[4-[[3-ethoxy-5-(3-ethoxyphenyl)phenyl]methyl]piperazin-1-yl]benzamide]
0.0	0.0	CCOc1cncc(-c2cc(CN3CCN(c4ccc(C(=O)NS(=O)(=O)C(C)(C)C)cc4)CC3)cc(OCC)c2)c1 [Compound B2L056-01]
